Source: patent publication US4066635A, “L-Pyroglutamyl-L-histidyl-L-prolyl-beta-alaninamide and salts” (Hoffmann-La Roche Inc., priority 1976, dated 1978)
Non-standard residues stand in square brackets, D forms with d. Residues, ends and D or L forms follow the SMILES beside them. pGlu = O=C1CC[C@@H](C(=O)O)N1; βAla = NCCC(=O)O

What was measured:
mice = test: Locomotor activity in mice; assay type: in vivo, mouse
[1] = system: noradrenalin (NA) in the entire brain of male mice; test: Lowering of noradrenalin (NA) in entire brain of mice after FLA 63 (FLA 63-induced NA-lowering); assay type: in vivo, mouse
Method: The action of antidepressants can be explained by the fact that such substances normalise the activity of noradrenergic neurones in the brain, this activity being altered in the case of depressive illness. […] If a test substance has NA-liberating action, then this manifests itself in an intensification of the FLA63-induced NA-lowering.
In order to determine the antidepressant action of the compound of formula I hereinbefore, the lowering of NA in the entire brain of male mice was determined 90 minutes after the i.p. injection of FLA 63 (5 mg/kg).

[2] = Toxicity (LD 10, LD 50) in the mouse; assay type: in vivo; conditions: in vivo, iv
mouse = test: Toxicity (LD 10, LD 50) in the mouse; assay type: in vivo; conditions: p.o.

SMILES: NC(=O)CCNC(=O)[C@@H]1CCCN1C(=O)[C@H](Cc1c[nH]cn1)NC(=O)[C@@H]1CCC(=O)N1 [compound of formula I, L-pyroglutamyl-L-histidyl-L-prolyl-β-alaninamide] ([pGlu]HP[βAla]-NH2)
- locomotor activity in mice (in words) (mice): increase in the locomotor activity
- Noradrenalin (%) ([1]; FLA 63 5 mg/kg i.p. plus test substance injected simultaneously, 90 minutes, entire brain, male mice, FLA 63 alone = 100%): 82.2 ± 2.6%
- liberation of NA in the brain of mice (in words) ([1]; mice): increases the liberation of NA
- FLA 63-induced NA-lowering (in words) ([1]; simultaneous injection with FLA 63 (5 mg/kg i.p.), 90 minutes, male mice): significant acceleration of the FLA 63-induced NA-lowering
- LD50 [2]: > 4000 mg/kg
- LD 10 (mouse): above 8 g/kg
